According to US8536201B2, “Pesticidal arylpyrrolidines” (Bayer Intellectual Property GmbH, priority 2009, dated 2013):

Columns and labels:
Format in all cases: in vivo
[1] = system: Spodoptera litura; experiment: Tobacco cutworm (Spodoptera litura) larvae using artificial diet; conditions: 20 ppm, 3rd-instar larvae
Protocol: BIOLOGICAL TEST EXAMPLE 1.2
Tobacco Cutworm (Spodoptera litura) Larvae Using Artificial Diet
2.3 g of artificial diet powder is put into a PET cup (7.5 cm diameter, 4 cm depth). The powder was leveled to make a layer in the bottom of the cup. 5 ml of a chemical solution is poured onto the powder and spread uniformly. The cup with treated diet powder is placed quiet to let the diet jell. Into each testing cup five 3rd-instar larvae were released. The testing cup is closed with the lid and placed in a temperature-controlled room at 25° C. and 50-60% R.H., 16L8D lighting conditions.
The mortality in % was determined according to the following criteria:
1 larva dead: 20% Efficacy
5 larvae dead: 100% Efficacy

[2] = system: Aulacophora femoralis; experiment: Cucurbit leaf beetle (Aulacophora femoralis) cucumber leaf dip test; conditions: second instar larvae, treated cucumber leaves, after 7 days
Protocol: BIOLOGICAL TEST EXAMPLE 3
Cucurbit Leaf Beetle (Aulacophora femoralis)
Leaves of cucumber were immersed in the test solution at the appropriate concentration, and the leaves were dried in air. The leaves were then put in a plastic cup containing sterilized black soil and five Aulacophora femoralis at second instar larvae were released in the cup. The cups were placed in a temperature-controlled chamber at 25° C. After 7 days, the number of dead larvae was counted, and thus the insecticidal activity was calculated. An insecticidal activity of 100% means that all larvae were killed, whereas an insecticidal activity of 0% means that no larva was killed.

[3] = system: Tetranychus urticae; experiment: Two-spotted spider mite Tetranychus urticae spray test on kidney bean; conditions: adult mites, after 7 days
Protocol: BIOLOGICAL TEST EXAMPLE 2
Two-Spotted Spider Mite Tetranychus urticae
50 to 100 adult mites of Tetranychus urticae were inoculated to leaves of kidney bean at two-leaf stage planted in a pot of 6 cm in diameter. After one day, test solution at the appropriate concentration was sprayed thereon in a sufficient amount using a spray gun. After the spraying, the plant pot was placed inside a greenhouse, and after 7 days, the acaricidal activity was calculated. An acaricidal activity of 100% means that all mites were killed, an acaricidal activity of 0% means that no mite was killed.

[4] = system: Spodoptera litura; experiment: Tobacco cutworm (Spodoptera litura) larvae, sweet potato leaf dip test; conditions: third instar larvae, treated sweet potato leaves, after 7 days
Protocol: Unless not mentioned otherwise, the test solutions were prepared as follows:
Solvent: dimethyl formamide, 3 parts by weight
Emulsifier: polyoxyethylene alkyl phenyl ether, 1 part by weight
To prepare the test solution, 1 part by weight of an active compound is mixed with the above-mentioned amount of solvent containing the above-mentioned amount of emulsifier, and the mixture is diluted with water to the desired concentration.
BIOLOGICAL TEST EXAMPLE 1.1
Tobacco Cutworm (Spodoptera litura) Larvae
Leaves of sweet potato were immersed in the test solution at the appropriate concentration, and the leaves were dried in air. The leaves were then placed in a petri dish having a diameter of 9 cm, and ten Spodoptera litura at third instar larvae were released therein. The petri dishes were placed in a temperature-controlled chamber at 25° C. After 2 days and 4 days more sweet potato leaves were added. After 7 days, the number of dead larvae was counted to calculate the insecticidal activity. An insecticidal activity of 100% means that all larvae were killed, whereas an insecticidal activity of 0% means that no larva was killed. In the current test, the results of two petri dishes for each treatment were averaged.

[5] = system: Musca domestica; experiment: Musca domestica test; conditions: for activity (mortality in %): 100 ppm, adults, sugar/compound sponge, after 2 days
Protocol: BIOLOGICAL TEST EXAMPLE 9
(§1) Solvent: Dimethyl Sulfoxide
To produce a suitable preparation of active compound, 10 mg of active compound are dissolved in 0.5 ml solvent, and the concentrate is diluted with water to the desired concentration. Prior to the assay, a piece of kitchen sponge is soaked with a mixture of sugar and compound solution and placed into a container. 10 adults (Musca domestica) are placed into the container and closed with a perforated lid.
After 2 days mortality in % is determined. 100% means that all the flies have been killed; 0% means that none of the flies have been killed.

[6] = system: Boophilus microplus; experiment: Boophilus microplus (dip)
Protocol: BIOLOGICAL TEST EXAMPLE 5
Boophilus microplus (Dip)
as §1
To produce a suitable preparation of active compound, 10 mg of active compound are dissolved in 0.5 ml solvent, and the concentrate is diluted with water to the desired concentration. Eight to ten adult engorged female Boophilus microplus ticks are placed in perforated plastic beakers and immersed in aqueous compound solution for one minute. Ticks are transferred to a filter paper in a plastic tray. Egg deposition of fertile eggs is monitored after. After 7 days mortality in % is determined. 100% means that all the ticks have been killed; 0% means that none of the ticks have been killed.

[7] = system: Ctenocephalides felis; experiment: Ctenocephalides felis test (CTECFE), blood feeding; conditions: Ctenocephalides felis, in Bos taurus, 48 h, read-out: activity (mortality in %)
Protocol: BIOLOGICAL TEST EXAMPLE 7
Ctenocephalides felis—Test (CTECFE)
as §1
To produce a suitable preparation of active compound, 10 mg of active compound are dissolved in 0.5 ml solvent, and the concentrate is diluted with cattle blood to the desired concentration. Approximately 20 adult unfed (Ctenocephalides felis) are placed in flea chambers. The blood chamber, sealed with parafilm on the bottom, are filled with cattle blood supplied with compound solution and placed on top of the flea chamber, so that the fleas are able to suck the blood. The blood chamber is heated to 37° C. whereas the flea chamber is kept at room temperature.
After 2 days mortality in % is determined. 100% means that all the fleas have been killed; 0% means that none of the fleas have been killed.

[8] = system: Lucilia cuprina; experiment: Lucilia cuprina (48 hrs) larval test; conditions: read-out: activity (larval mortality in %)
Protocol: BIOLOGICAL TEST EXAMPLE 8
Species: Lucilia cuprina 1st Instar Larvae (Age 24 Hrs)
as §1
10 mg active compound are dissolved in 0.5 ml dimethyl sulfoxide. Serial dilutions are made to obtain the desired rates. Approximately 20 Lucilia cuprina 1st instar larvae are transferred into a test tube containing 1 cm^3 of minced horse meat and 0.5 ml aqueous dilution of test compound.
After 2 days larval mortality in % is recorded. 100% efficacy=all larvae are killed, […].

Compound	insecticidal activity [1] [%]	insecticidal activity ([2]; 20 ppm) [%]	insecticidal activity ([3]; 20 ppm) [%]	insecticidal activity ([4]; 20 ppm) [%]	activity (mortality in %) [5] [%]	mortality at 100 ppm ([6]; Rhipicephalus microplus, 168 h, read-out: activity (mortality in %)) [%]	mortality at 100 ppm [7] [%]	mortality at 100 ppm [8] [%]	insecticidal activity ([2]; 4 ppm) [%]	insecticidal activity ([3]; 4 ppm) [%]	insecticidal activity ([4]; 0.8 ppm) [%]	mortality at 100 ppm ([5]; Musca domestica, 48 h, read-out: activity (mortality in %)) [%]	activity (mortality in %) ([6]; 100 ppm, adult engorged females immersed one minute, after 7 days) [%]	insecticidal activity ([2]; 100 ppm) [%]
CC(NC(=O)C1CC1)c1ccc(N2CCC(c3cc(Cl)cc(Cl)c3)(C(F)(F)F)C2)cc1 (racemic) [Compound 3]	100	100	100	100	90	–	–	–	–	–	–	–	–	–
CC(NC(=O)C1CC1)c1ccc(N2CCC(c3cc(Cl)c(Cl)c(Cl)c3)(C(F)(F)F)C2)cc1 (racemic) [Compound 8]	100	100	100	100	90	–	–	–	–	–	–	–	–	–
CCC(=O)NC(C)c1ccc(N2CCC(c3cc(C(F)(F)F)cc(C(F)(F)F)c3)(C(F)(F)F)C2)cc1 (racemic) [Compound 10]	100	100	100	100	90	–	–	–	–	–	–	–	–	–
CC(=O)N[C@@H](C)c1ccc(N2CCC(c3cc(C(F)(F)F)cc(C(F)(F)F)c3)(C(F)(F)F)C2)cc1 (stereo partly drawn) [Compound 9-b]	100	100	–	100	90	–	–	–	–	–	–	–	–	–
C[C@H](NC(=O)C1CC1)c1ccc(N2CCC(c3cc(C(F)(F)F)cc(C(F)(F)F)c3)(C(F)(F)F)C2)cc1 (stereo partly drawn) [Compound 11-b, N-[(1S)-1-(4-{3-[3,5-bis(trifluoromethyl)phenyl]-3-(trifluoromethyl)pyrrolidin-1-yl}phenyl)ethyl]cyclopropanecarboxamide]	–	100	100	100	–	100	100	100	100	100	100	100	–	–
COCCC(=O)N[C@@H](C)c1ccc(N2CCC(c3cc(C(F)(F)F)cc(C(F)(F)F)c3)(C(F)(F)F)C2)cc1 (stereo partly drawn) [Compound 15-b]	100	–	100	–	–	–	–	–	–	–	–	–	80	100
